From patent US5925331A, “Technetium-99m labeled peptides for thrombus imaging” (Diatide, Inc., priority 1995, dated 1999)
pIC50: −log10 of the molar value.

system: human platelets in platelet-rich plasma; test: Platelet aggregation inhibition assay (ADP-induced, platelet-rich plasma); type: cell-based; conditions: fresh human platelet-rich plasma, 300,000 platelets per microliter; ADP 10 to 15 micromolar; read-out: IC50: concentration of reagent that inhibits by 50% the aggregation of human platelets in platelet-rich plasma induced by ADP
Method: Platelet aggregation studies were performed essentially as described by Zucker (1989, Methods in Enzymol. 169: 117-133). Briefly, platelet aggregation was assayed with or without putative platelet aggregation inhibitory compounds using fresh human platelet-rich plasma, comprising 300,000 platelets per microliter. Platelet aggregation was induced by the addition of a solution of adenosine diphosphate to a final concentration of 10 to 15 micromolar, and the extent of platelet aggregation monitored using a Bio/Data aggregometer (Bio/Data Corp., Horsham, Pa.). The concentrations of platelet aggregation inhibitory compounds used were varied from 0.1 to 500 μg/mL. The concentration of inhibitor that reduced the extent of platelet aggregation by 50% (defined as the IC50) was determined from plots of inhibitor concentration versus extent of platelet aggregation. An inhibition curve for peptide RGDS was determined for each batch of platelets tested as a positive control.

Row | pIC50 | Compound
1 | 5.10 | GRGDVRGDFKCAcm GCAcm amide [Peptide P97]
2 | 4.82 | GRDGVRGDFCAcm GCAcm amide [Peptide P98]
3 | 6.30 | CC(=O)NCSC[C@H](NC(=O)CNC(=O)CNC(=O)[C@@H]1CSCC(=O)N[C@H](Cc2ccc(O)cc2)C(=O)N[C@@H](CSCCCN)C(=O)NCC(=O)N[C@@H](CC(=O)O)C(=O)N1)C(=O)NCC(=O)N[C@@H](CSCNC(C)=O)C(=O)NCC(=O)NCC(=O)N[C@H](Cc1ccccc1)C(=O)N1CCC[C@H]1C(=O)N[C@@H](CCCNC(=N)N)C(=O)N1CCC[C@H]1C(=O)NCC(N)=O [Peptide P245, CH2 CO--YD.Apc.GDCGGCAcm GCAcm GGFD PRPGamide]

Row | Compound | pIC50
4 | (CH2 CO--YD ApcGDCKGCAcm GCAcm GGC-amide)2 --BSME [Peptide P381] | 7.46
